Tested on: A2780 human ovarian carcinoma
Assay: Human A2780 xenograft tumor growth in athymic nude mice
Assay type: in vivo
Procedure: A2780 is a human ovarian cell line (Sigma-Aldrich). The cells are grown in culture media at 37° C. in 5% CO2 with humidity in the atmosphere. Cell culture media for A2780 human ovarian carcinoma is RPMI-1640 (without phenol red) with 2.05 mM L-glutamine, 0.01 mg/ml insulin and 10% fetal bovine serum (EBS) added.
To evaluate in viva efficacy and effect A2780 (2×10^6) cells in a 1:1 Matrigel® mix (0.2 mL volume) are implanted by subcutaneous injection in the hind leg of 6-8 weeks of age athymic nude female mice (Harlan Laboratories). A total of 7 to 10 mice are used for each group. Just before implantation, animals are irradiated ([…]). Mice are fed ad libitum on normal chow. Treatment is initiated with oral administration (gavage) of Compound A or vehicle (1% sodium carboxymethylcellulose (Na-CMC) in 0.25% Tween®-80) or Compound B in 1% hydroxyethyl cellulose (HEC)/0.25% Tween® 80/0.05% Antifoam or their vehicle in 0.2 mL volume when tumor size reached to 150±50 mm^3, in this case after the tumor measurements were taken on study day 9. Compound A was administered at 4 or 8 mg/kg on a Monday, Wednesday and Friday schedule for 4 weeks and Compound B was administered at 15 or 30 mg/kg daily for 28 days. Tumor growth and body weight are monitored over time to evaluate efficacy and signs of toxicity. Bidimensional measurements of tumors are performed twice a week and tumor volumes are calculated based on the following formula: (Tumor Volume)=[(L)×(W2)×(II/6)] where L is mid-axis length and W is mid-axis width. Tumor volume data are transformed to a […] to equalize variance across time and treatment groups. The log volume data are analyzed with a two-way repeated measures analysis of variance by time and treatment using the MIXED™ procedure in SAS™ software (version 8.2). The correlation model for the repeated measures is spatial power. Test Groups are: • 01: Control: 1% HEC/0.25% Tween 80/0.05% Antifoam; 1% CMC/0.25% Tween 80/0.05% Antifoam; • 02: Compound A 8 mg/kg; • 03: Compound B 30 mg/kg; • 04: rapamycin 4 mg/kg; • 05: Compound A 8 mg/kg and Compound B 30 mg/kg; • 06: Compound A 4 mg/kg and Compound B 30 mg/kg; • 07: Compound B 15 mg/kg and Compound A 8 mg/kg; • 08: Compound B 15 mg/kg and Compound A 4 mg/kg; • 09: Compound A 8 mg/kg and rapamycin 4 mg/kg.
Using the repeated measures analysis previously described, a contrast statement is used to test for an interaction effect on study day 36, using the two specific treatments that were combined.

## C[C@H](NC(=O)CCC(F)(F)F)C(=O)N[C@@H]1C(=O)N(CCO)c2ncccc2-c2ccccc21 [Compound A, 4,4,4-trifluoro-N-[(1S)-2-[[(7S)-5-(2-hydroxyethyl)-6-oxo-7H-pyrido[2,3-d][3]benzazepin-7-yl]amino]-1-methyl-2-oxo-ethyl]butanamide]
Group 02: Compound A 8 mg/kg oral Mon/Wed/Fri, study day 7 (before first dose)
  Tumor volume, Geometric Mean: 121.62 mm^3
Group 02: Compound A 8 mg/kg oral Mon/Wed/Fri, study day 9 (before first dose)
  Tumor volume, Geometric Mean: 109.98 mm^3
Group 02: Compound A 8 mg/kg oral Mon/Wed/Fri, study day 12
  Tumor volume, Geometric Mean: 131.53 mm^3
Group 02: Compound A 8 mg/kg oral Mon/Wed/Fri, study day 15
  Tumor volume, Geometric Mean: 194.78 mm^3
Group 02: Compound A 8 mg/kg oral Mon/Wed/Fri, study day 19
  Tumor volume, Geometric Mean: 408.55 mm^3
Group 02: Compound A 8 mg/kg oral Mon/Wed/Fri, study day 22
  Tumor volume, Geometric Mean: 639.48 mm^3
Group 02: Compound A 8 mg/kg oral Mon/Wed/Fri, study day 26
  Tumor volume, Geometric Mean: 1140.46 mm^3
Group 02: Compound A 8 mg/kg oral Mon/Wed/Fri, study day 29
  Tumor volume, Geometric Mean: 1384.21 mm^3
Group 02: Compound A 8 mg/kg oral Mon/Wed/Fri, study day 33
  Tumor volume, Geometric Mean: 1631.82 mm^3
Group 02: Compound A 8 mg/kg oral Mon/Wed/Fri, study day 36
  Tumor volume, Geometric Mean: 1616.05 mm^3

## CO[C@@H](C)Cn1c(=O)n(C)c2cnc3ccc(-c4cncc(C(C)(C)O)c4)cc3c21 [Compound B, 8-[5-(1-hydroxy-1-methylethyl)pyridin-3-yl]-1-[(2S)-2-methoxypropyl]-3-methyl-1,3-dihydro-2H-imidazo[4,5-c]quinolin-2-one]
Group 03: Compound B 30 mg/kg oral daily, study day 7 (before first dose)
  Tumor volume, Geometric Mean: 149.36 mm^3
Group 03: Compound B 30 mg/kg oral daily, study day 9 (before first dose)
  Tumor volume, Geometric Mean: 118.70 mm^3
Group 03: Compound B 30 mg/kg oral daily, study day 12
  Tumor volume, Geometric Mean: 138.06 mm^3
Group 03: Compound B 30 mg/kg oral daily, study day 15
  Tumor volume, Geometric Mean: 201.95 mm^3
Group 03: Compound B 30 mg/kg oral daily, study day 19
  Tumor volume, Geometric Mean: 326.33 mm^3
Group 03: Compound B 30 mg/kg oral daily, study day 22
  Tumor volume, Geometric Mean: 488.21 mm^3
Group 03: Compound B 30 mg/kg oral daily, study day 26
  Tumor volume, Geometric Mean: 776.88 mm^3
Group 03: Compound B 30 mg/kg oral daily, study day 29
  Tumor volume, Geometric Mean: 1135.14 mm^3
Group 03: Compound B 30 mg/kg oral daily, study day 33
  Tumor volume, Geometric Mean: 1527.41 mm^3
Group 03: Compound B 30 mg/kg oral daily, study day 36
  Tumor volume, Geometric Mean: 1664.20 mm^3

## CO[C@H]1C[C@@H]2CC[C@@H](C)[C@@](O)(O2)C(=O)C(=O)N2CCCC[C@H]2C(=O)O[C@H]([C@H](C)C[C@@H]2CC[C@@H](O)[C@H](OC)C2)CC(=O)[C@H](C)/C=C(\C)[C@@H](O)[C@@H](OC)C(=O)[C@H](C)C[C@H](C)/C=C/C=C/C=C/1C [rapamycin, reference compound]
Group 04: rapamycin 4 mg/kg, study day 7 (before first dose)
  Tumor volume, Geometric Mean: 130.45 mm^3
Group 04: rapamycin 4 mg/kg, study day 9 (before first dose)
  Tumor volume, Geometric Mean: 100.08 mm^3
Group 04: rapamycin 4 mg/kg, study day 12
  Tumor volume, Geometric Mean: 130.81 mm^3
Group 04: rapamycin 4 mg/kg, study day 15
  Tumor volume, Geometric Mean: 215.88 mm^3
Group 04: rapamycin 4 mg/kg, study day 19
  Tumor volume, Geometric Mean: 428.88 mm^3
Group 04: rapamycin 4 mg/kg, study day 22
  Tumor volume, Geometric Mean: 786.46 mm^3
Group 04: rapamycin 4 mg/kg, study day 26
  Tumor volume, Geometric Mean: 1291.64 mm^3
Group 04: rapamycin 4 mg/kg, study day 29
  Tumor volume, Geometric Mean: 1664.57 mm^3
Group 04: rapamycin 4 mg/kg, study day 33
  Tumor volume, Geometric Mean: 2136.31 mm^3
Group 04: rapamycin 4 mg/kg, study day 36
  Tumor volume, Geometric Mean: 2461.81 mm^3

Source: US11564929B2, “Combination therapy with Notch and PI3K/mTOR inhibitors for use in treating cancer” (Eli Lilly and Company, priority 2016, dated 2023)
